Experimental data published in patent US7414041B2 (Trustees Of Tufts College, priority 1991, dated 2008).
≈ marks a conversion by molar mass, not a printed value. Read-outs that look alike come from different tables or passages of the source.

Experiments:
E. faecalis ATCC 9790 = assay: MIC of tetracycline susceptible strains, C5 esters; assay type: cell-based; settings: Enterococcus faecalis, ATCC9790; E. faecalis ATCC 9790, alone; read-out: MIC
E. faecalis 158 (Tet L) = assay: MIC/MLC chart, analog with and without doxycycline; assay type: cell-based; settings: Chart 6C, doxy = number in box (line above), listed as H analog alone
E. coli D1-299 (Tet A) = assay type: cell-based; settings: Chart 6A, doxy = number in box (line above), listed as H analog alone;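 note: E. coli at roughly 5×10^5 cells/ml in L broth, analog and doxycycline alone or mixed in two-fold dilutions from 50 to under 1 µg/ml, 18 h at 37 °C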
E. coli ML308 = assay: MIC of tetracycline susceptible strains, C5 esters; assay type: cell-based; settings: Escherichia coli; E. coli ML308, alone; read-out: MIC
[1] = target: T1, TET proteins responsible for tetracycline efflux (Class B tetracycline resistance determinant, strain D1-209) (Escherichia coli, UniProt P02980); assay: biochemical; parameters: species or system E. coli
T1 construct: Everted vesicles, to which the TET proteins responsible for tetracycline efflux are attached; endogenous in cells; host or cells: E. coli strain D1-209 (everted membrane vesicles)

S. aureus 4250 (Tet K) = assay: MIC/MLC chart, analog with and without doxycycline; assay type: cell-based; settings: for MIC/MLC chart symbol: Chart 6B, doxy = number in box (line above), listed as H analog alone
E. faecalis 211 (Tet M) = assay: MIC/MLC chart, analog with and without doxycycline; assay type: cell-based; settings: Chart 6D, doxy = number in box (line above), listed as H analog alone;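 note: broth checkerboard of two-fold drug dilutions, alone and mixed with doxycycline, bacteria near 5×10^5 cells/ml, 18 h incubation at 37 °C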
S. aureus 450 = assay: MIC of tetracycline susceptible strains, C5 esters; assay type: cell-based; settings: Staphylococcus aureus; S. aureus 450, alone; read-out: MIC
[2] = system: E. faecalis Tc^s (ATCC9790r); assay: susceptibility testing MIC/MLC, drug alone; assay type: cell-based
[3] = system: E. coli Class β Tc^r (DI-209); assay type: cell-based
S. aureus Tc^s (RN450) = assay: susceptibility testing MIC/MLC, drug alone; assay type: cell-based
[4] = system: E. faecalis Tc^r (L) (ATCC9790r/Tet L); assay type: cell-based; settings: Tc^r (L)
[5] = system: E. faecalis Tc^r (M) (ATCC9790r/Tet M); assay type: cell-based
[6] = system: E. coli Class A Tc^r (DI-299); assay type: cell-based
efflux protein = target: T2, efflux protein (Escherichia coli, UniProt P02980); assay: everted membrane vesicle assay, blocking activity of 13-S-derivatives (Ki); assay type: biochemical
T2 sequence (P02980 1-401): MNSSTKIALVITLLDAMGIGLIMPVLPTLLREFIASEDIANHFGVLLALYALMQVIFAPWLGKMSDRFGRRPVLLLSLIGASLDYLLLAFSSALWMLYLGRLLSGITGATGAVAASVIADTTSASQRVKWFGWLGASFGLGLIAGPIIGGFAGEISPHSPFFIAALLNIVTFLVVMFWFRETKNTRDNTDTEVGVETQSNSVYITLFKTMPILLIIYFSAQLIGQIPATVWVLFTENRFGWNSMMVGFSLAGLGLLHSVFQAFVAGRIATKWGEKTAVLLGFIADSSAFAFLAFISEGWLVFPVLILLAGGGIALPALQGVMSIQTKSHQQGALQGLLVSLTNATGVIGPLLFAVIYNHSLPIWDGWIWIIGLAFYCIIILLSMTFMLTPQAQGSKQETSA

S. aureus Tc^r (RN4250) = assay type: cell-based; settings: Tc^r RN4250
[7] = system: E. coli Tc^s (MI 300-225); assay: susceptibility testing MIC/MLC, drug alone; assay type: cell-based

`C=C1c2cccc(O)c2C(=O)C2=C(O)C3(O)C(=O)C(C(N)=O)=C(O)C(N(C)C)C3C(OC(=O)CC)C12` (stereo not shown) [Cmpd 2, 5 proprionate methacycline] was tested, and the MIC (E. faecalis ATCC 9790) was 0.8 µg/mL, the MIC/MLC chart symbol (E. faecalis 158 (Tet L); analog 1.56 μg/ml) was “↓ and ◯” and the MIC/MLC chart symbol (E. faecalis 158 (Tet L); analog .195 μg/ml) was “◯ and +”. The MIC/MLC chart symbol (E. faecalis 158 (Tet L); analog .39 μg/ml) was “◯ and +”, the MIC/MLC chart symbol (E. faecalis 158 (Tet L); analog .78 μg/ml) was “◯ and +” and the MIC/MLC chart symbol (E. coli D1-299 (Tet A); analog 1.56 μg/ml) was “+”. For the same compound, the MIC/MLC chart symbol (E. coli D1-299 (Tet A); analog 3.12 μg/ml) was “+”, the MIC/MLC chart symbol (E. coli D1-299 (Tet A); analog 3.12 μg/ml, listed as 5-proprionate methacycline) was “◯” and the MIC/MLC chart symbol (E. coli D1-299 (Tet A); analog 6.25 μg/ml) was “+”. For the same compound, the MIC/MLC chart symbol (E. coli D1-299 (Tet A); analog 6.25 μg/ml, listed as 5-proprionate methacycline) was “◯”, the MIC/MLC chart symbol (E. coli D1-299 (Tet A); analog 12.5 μg/ml) was “+” and the MIC/MLC chart symbol (E. coli D1-299 (Tet A); analog 25 μg/ml) was “+”. For the same compound, the MIC/MLC chart symbol (E. coli D1-299 (Tet A); analog 25 μg/ml, listed as 5-proprionate methacycline) was “◯”, the MIC/MLC chart symbol (E. coli D1-299 (Tet A); analog .195 μg/ml) was “+” and the MIC/MLC chart symbol (E. coli D1-299 (Tet A); analog .39 μg/ml) was “+”. For the same compound, the MIC/MLC chart symbol (E. coli D1-299 (Tet A); analog .78 μg/ml) was “+”, the MIC (E. coli ML308) was 10 µg/mL and the IC50 [1] was 200 nM. The MIC/MLC chart symbol (S. aureus 4250 (Tet K); analog 1.56 μg/ml) was “↓ and ◯ and +”, the MIC/MLC chart symbol (S. aureus 4250 (Tet K); analog .195 μg/ml) was “↓ and +” and the MIC/MLC chart symbol (S. aureus 4250 (Tet K); analog .39 μg/ml) was “↓ and +”. The MIC/MLC chart symbol (S. aureus 4250 (Tet K); analog .78 μg/ml) was “◯ and +”, the MIC in combination (S. aureus 4250 (Tet K); with 1.55 μg/ml doxycycline (Chart 6B)) was 1.56 µg/mL and the MIC in combination (S. aureus 4250 (Tet K); with 6.23 μg/ml doxycycline (Chart 6B)) was 0.78 µg/mL. For the same compound, the MIC/MLC chart symbol (E. faecalis 211 (Tet M); analog 1.56 μg/ml) was “◯ and +”, the MIC/MLC chart symbol (E. faecalis 211 (Tet M); analog 3.12 μg/ml) was “+” and the MIC/MLC chart symbol (E. faecalis 211 (Tet M); analog 6.25 μg/ml) was “↓ and +”. The MIC/MLC chart symbol (E. faecalis 211 (Tet M); analog .195 μg/ml) was “+”, the MIC/MLC chart symbol (E. faecalis 211 (Tet M); analog .39 μg/ml) was “+” and the MIC/MLC chart symbol (E. faecalis 211 (Tet M); analog .78 μg/ml) was “+”. For the same compound, the MIC (S. aureus 450) was 1.3 µg/mL.
With `CCSCC1c2cccc(O)c2C(=O)C2=C(O)C3(O)C(=O)C(C(N)=O)=C(O)C(N(C)C)C3CC21` (stereo not shown) [Ethyl, 6-deoxy-13-(ethylmercapto) tetracycline] the “MIC” value ([2]; 1st column) was 1 ± 0.6 µg, the “MIC” value ([2]; 2nd column) was 40 ± 0.25 µg and the “MIC” value ([3]; 1st column) was 36 ± 16 µg. The “MIC” value ([3]; 2nd column) was 60 ± 10 µg, the “MIC” value (S. aureus Tc^s (RN450)) was 0.5 ± 0.25 µg and the “MLC” value (S. aureus Tc^s (RN450); kills 99.9%) was 4 µg. The “MIC” value ([4]; 1st column) was 4 ± 1 µg, the “MIC” value ([4]; 2nd column) was 100 ± 0.25 µg and the “MIC” value ([5]; 1st column) was 25 ± 6 µg. The “MIC” value ([5]; 2nd column) was >200 µg, the “MIC” value ([6]; 1st column) was 14 ± 4 µg and the “MIC” value ([6]; 2nd column) was 46 ± 6 µg. The Ki (efflux protein) was 0.4 µg/mL (≈ 0.819 µM), the “MIC” value (S. aureus Tc^r (RN4250)) was 5 ± 2 µg and the “MLC” value (S. aureus Tc^r (RN4250); kills 99.9%) was 30 ± 10 µg. The “MIC” value ([7]; Tc^s, 1st column) was 6 ± 0.26 µg, the “MIC” value ([7]; Tc^s, 2nd column) was 60 µg and the MIC ([7]; susceptible E. coli) was 5 µg/mL (≈ 10.2 µM).
